Molecular target: T1, vanilloid receptor (Rattus norvegicus, UniProt O35433)
T1 construct: DRG nerve cells from the primary culture of 2 days were equilibrated; endogenous in cells; host or cells: primary culture of dorsal root ganglion neurons from neonatal SD rats
Test: 45Ca influx test in cultured neonatal rat DRG neurons, inhibition of capsaicin response
Type: cell-based
Conditions: neonatal rat DRG neurons, capsaicin 0.5 μM, 45Ca influx; read-out: Antagonist Calcium Uptake Test (IC50)
Procedure, shortened: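 Neonatal SD rat DRG neurons, cultured 2 days with NGF (200 ng/ml) and Ara-C, were washed in HEPES (10 mM, pH 7.4)-buffered Ca/Mg-free HBSS. Test compound was added with capsaicin (final 0.5 μM) and 45Ca (10 μCi/ml) for 10 min at room temperature; 45Ca uptake counted by scintillation after SDS elution.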

T1 sequence (O35433 whole entry): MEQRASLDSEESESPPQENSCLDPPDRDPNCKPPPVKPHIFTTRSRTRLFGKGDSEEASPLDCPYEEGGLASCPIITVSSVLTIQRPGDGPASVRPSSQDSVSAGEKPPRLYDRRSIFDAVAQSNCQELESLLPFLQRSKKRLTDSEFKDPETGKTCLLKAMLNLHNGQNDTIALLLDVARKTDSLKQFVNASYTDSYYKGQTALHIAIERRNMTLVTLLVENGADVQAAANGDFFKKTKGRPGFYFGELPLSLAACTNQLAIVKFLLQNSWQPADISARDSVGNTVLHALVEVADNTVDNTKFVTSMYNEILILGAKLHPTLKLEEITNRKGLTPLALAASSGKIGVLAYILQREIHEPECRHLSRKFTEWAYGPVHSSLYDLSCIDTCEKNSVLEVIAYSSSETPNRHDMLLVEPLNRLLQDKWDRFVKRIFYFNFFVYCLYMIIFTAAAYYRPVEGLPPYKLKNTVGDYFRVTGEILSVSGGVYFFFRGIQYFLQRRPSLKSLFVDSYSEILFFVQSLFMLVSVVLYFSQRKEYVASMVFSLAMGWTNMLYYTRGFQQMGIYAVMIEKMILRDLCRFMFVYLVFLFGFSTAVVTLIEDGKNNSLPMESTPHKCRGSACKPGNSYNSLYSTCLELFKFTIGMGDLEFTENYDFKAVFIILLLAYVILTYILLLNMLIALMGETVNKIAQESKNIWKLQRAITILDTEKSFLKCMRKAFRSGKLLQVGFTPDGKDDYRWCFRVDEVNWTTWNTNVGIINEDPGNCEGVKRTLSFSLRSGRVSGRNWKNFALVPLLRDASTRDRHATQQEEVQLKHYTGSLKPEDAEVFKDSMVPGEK

| Compound | IC50 [nM] |
| --- | --- |
| CCCCc1nc(C(F)(F)F)ccc1/C=C/C(=O)NCc1cc(F)c(NS(C)(=O)=O)c(F)c1 [Example 205, 3-(2-Butyl-6-trifluoromethyl-pyridin-3-yl)-N-(3,5-difluoro-4-methanesulfonylamino-benzyl)-acrylamide] | 86 |
| O=C(/C=C/c1ccc(C(F)(F)F)nc1CCc1ccccc1)NCc1ccc(NS(=O)(=O)C(F)(F)F)cc1 [Example 279, 3-(2-Phenethyl-6-trifluoromethyl-pyridin-3-yl)-N-(4-trifluoromethanesulfonylamino-benzyl)-acrylamide] | 3900 |
| CCC(C)Cc1nc(C(F)(F)F)ccc1/C=C/C(=O)N[C@H](C)c1ccc(NS(C)(=O)=O)c(F)c1 (stereo partly drawn) [Example 211, (R)-3-[2-(2-Methyl-butyl)-6-trifluoromethyl-pyridin-3-yl]-N-[1-(3-fluoro-4-methanesulfonylamino-phenyl)-ethyl]-acrylamide] | 62 |
| CS(=O)(=O)Nc1c(F)cc(CNC(=O)/C=C/c2ccc(C(F)(F)F)nc2Nc2ccccc2)cc1C#N [Example 128, N-(3-Cyano-5-fluoro-4-methanesulfonylamino-benzyl)-3-(2-phenylamino-6-trifluoromethyl-pyridin-3-yl)-acrylamide] | 600 |
| CCCCc1nc(C(F)(F)F)ccc1C#CC(=O)N[C@H](C)c1cc(F)c(NS(C)(=O)=O)c(F)c1 [Example 262, 3-(2-Butyl-6-trifluoromethyl-pyridin-3-yl)-propynoic acid [1-(3,5-difluoro-4-methanesulfonylamino-phenyl)-ethyl]-amide] | 150 |
| C#Cc1cc(CNC(=O)/C=C/c2ccc(C(F)(F)F)nc2N2CCCC(C(=O)OCC)C2)cc(F)c1NS(C)(=O)=O (stereo not drawn) [Example 114, N-(3-Ethynyl-5-fluoro-4-methansulfonylamino-benzyl)-3-[2-(3-ethoxycarbonyl-piperid-1-yl)-6-trifluoromethyl-pyridin-3-yl]-acrylamide] | 430 |
| CCCc1nc(C(F)(F)F)ccc1/C=C/C(=O)NCc1ccc(NS(C)(=O)=O)cc1Cl [Example 251, N-(2-Chloro-4-methanesulfonylamino-benzyl)-3-(2-propyl-6-trifluoromethyl-pyridin-3-yl)-acrylamide] | 700 |
| CCCCOc1nc(C(F)(F)F)ccc1CCC(=O)NCc1ccc(NS(C)(=O)=O)c(F)c1 [Example 86, 3-(2-Butoxy-6-trifluoromethyl-pyridin-3-yl)-N-(3-fluoro-4-methanesulfonylamino-benzyl)-propionamide] | 1200 |
| CCCCc1nc(C(F)(F)F)ccc1/C=C/C(=O)NCc1cc(C)c(NS(C)(=O)=O)c(F)c1 [Example 192, 3-(2-Butyl-6-trifluoromethyl-pyridin-3-yl)-N-(3-fluoro-4-methanesulfonylamino-5-methyl-benzyl)-acrylamide] | 90 |
| CC(C)(C)c1cc(C(F)(F)F)c(/C=C/C(=O)NCc2ccc(NS(C)(=O)=O)c(F)c2)cn1 [Example 17, 3-(6-tert-Butyl-4-trifluoromethyl-pyridin-3-yl)-N-(3-fluoro-4-methanesulfonylamino-benzyl)-acrylamide] | 570 |
| CS(=O)(=O)Nc1c(F)cc(CNC(=O)/C=C/c2ccc(C(F)(F)F)nc2N2CCOCC2)cc1C#N [Example 103, N-(3-Cyano-5-fluoro-4-methanesulfonylamino-benzyl)-3-(2-morpholin-4-yl-6-trifluoromethyl-pyridin-3-yl)-acrylamide] | 5900 |
| CCC(C)Oc1nc(C(F)(F)F)ccc1/C=C/C(=O)NCc1ccc(NS(C)(=O)=O)c(C)c1 (stereo not drawn) [Example 162, 3-(2-sec-Butoxy-6-trifluoromethyl-pyridin-3-yl)-N-(4-methanesulfonylamino-3-methyl-benzyl)-acrylamide] | 120 |
| C[C@@H](NC(=O)/C=C/c1ccc(C(F)(F)F)nc1N1CCCCC1)c1ccc(NS(C)(=O)=O)c(F)c1 [Example 183, (R)—N-[1-(3-Fluoro-4-methanesulfonylamino-phenyl)-ethyl]-3-(2-piperid-1-yl-6-trifluoromethyl-pyridin-3-yl)-acrylamide] | 220 |
| CCCCOc1nc(C(F)(F)F)ccc1/C=C/C(=O)NCc1ccc(NS(C)(=O)=O)c(F)c1 [Example 63, 3-(2-Butoxy-6-trifluoromethyl-pyridin-3-yl)-N-(3-fluoro-4-methanesulfonylamino-benzyl)-acrylamide] | 560 |
| CS(=O)(=O)Nc1ccc(CNC(=O)/C=C/c2ccc(N3CCCCC3)nc2)cc1F [Example 19, N-(3-Fluoro-4-methanesulfonylamino-benzyl)-3-(6-piperid-1-yl-pyridinyl-3-yl)-acrylamide] | > 10000 |
| CCCNc1nc(C(F)(F)F)ccc1/C=C/C(=O)N[C@H](C)c1cc(F)c(NS(C)(=O)=O)c(F)c1 [Example 229, (R)—N-[1-(3,5-Difluoro-4-methanesulfonylamino-phenyl)-ethyl]-3-(2-propylamino-6-trifluoromethyl-pyridin-3-yl)-acrylamide] | 15 |
| CC(C)(C)c1ccc(/C=C/C(=O)NCc2ccc(NS(C)(=O)=O)c(F)c2)cn1 [Examples 1] | 1300 |

Next, values leading:

| IC50 [nM] | Compound |
| --- | --- |
| 83 | Cc1cc(CNC(=O)/C=C/c2ccc(C(F)(F)F)nc2CC(C)C)cc(F)c1NS(C)(=O)=O [Example 164, N-(3-Fluoro-4-methanesulfonylamino-5-methyl-benzyl)-3-(2-isobutyl-6-trifluoromethyl-pyridin-3-yl)-acrylamide] |
| 810 | C#Cc1cc(CNC(=O)C#Cc2ccc(C(F)(F)F)nc2NCCCC)cc(F)c1NS(C)(=O)=O [Example 260, 3-(2-Butylamino-6-trifluoromethyl-pyridin-3-yl)-propynoic acid, 3-ethynyl-5-fluoro-4-methanesulfonylamino-benzylamide] |
| 9700 | CS(=O)(=O)Nc1ccc(CNC(=O)/C=C/c2ccc(C(F)(F)F)nc2Sc2ccccc2)cc1F [Example 140, N-(3-fluoro-4-methanesulfonylamino-benzyl)-3-(2-phenylthio-6-trifluoromethyl-pyridin-3-yl)-acrylamide] |
| 220 | C=Cc1cc(CNC(=O)/C=C/c2ccc(C(C)(C)C)nc2)ccc1NS(C)(=O)=O [Examples 4] |
| 54 | CCCCCc1nc(C(F)(F)F)ccc1/C=C/C(=O)N[C@H](C)c1ccc(NS(C)(=O)=O)c(F)c1 [Example 215, (R)—N-[1-(3-Fluoro-4-methanesulfonylamino-phenyl)-ethyl]-3-(2-pentyl-6-trifluoromethyl)-pyridin-3-yl-acrylamide] |
| > 10000 | CS(=O)(=O)Nc1ccc(CNC(=O)/C=C/c2ccc(Br)nc2)cc1F [Example 20, 3-(6-Bromo-pyridin-3-yl)-N-(3-fluoro-4-methanesulfonylamino-benzyl)-acrylamide] |
| 150 | C#Cc1cc(CNC(=O)/C=C/c2ccc(C(F)(F)F)nc2NC2CCCC2)cc(F)c1NS(C)(=O)=O [Example 73, 3-(2-Cyclopentylamino-6-trifluoromethyl-pyridin-3-yl)-N-(3-ethynyl-5-fluoro-4-methanesulfonylamino-benzyl)-acrylamide] |
| 450 | C=CS(=O)(=O)Nc1ccc(CNC(=O)/C=C/c2ccc(C(F)(F)F)nc2NC(C)C)cc1 [Example 267, N-(4-Ethenesulfonylamino-benzyl)-3-(2-isopropylamino-6-trifluoromethyl-pyridin-3-yl)-acrylamide] |
| 2100 | C#Cc1cc(CNC(=O)/C=C/c2ccc(C(F)(F)F)nc2N2CCC[C@H]2CO)cc(F)c1NS(C)(=O)=O (stereo in doubt) [Example 83, N-(3-Ethynyl-5-fluoro-4-methansulfonylamino-benzyl)-3-[2-(2-hydroxymethyl-pyrrolidin-1-yl)-6-trifluoromethyl-pyridin-3-yl]-acrylamide] |
| 96 | C[C@@H](NC(=O)/C=C/c1ccc(C(F)(F)F)nc1CCc1ccccc1)c1ccc(NS(C)(=O)=O)c(F)c1 [Example 237, (R)—N-[1-(3-Fluoro-4-methanesulfonylamino-phenyl)-ethyl]-3-(2-phenethyl-6-trifluoromethyl-pyridin-3-yl)-acrylamide] |
| 580 | CS(=O)(=O)Nc1c(F)cc(CNC(=O)/C=C/c2ccc(C(F)(F)F)nc2N2CCCCC2)cc1F [Example 200, N-(4-Methanesulfonylamino-3,5-difluoro-benzyl)-3-(2-piperid-1-yl-6-trifluoromethyl-pyridin-3-yl)-acrylamide] |
| 200 | CCCCc1nc(C(F)(F)F)ccc1/C=C/C(=O)NCc1ccc(NS(C)(=O)=O)c(F)c1 [Example 143, 3-(2-Butyl-6-trifluoromethyl-pyridin-3-yl)-N-(3-fluoro-4-methanesulfonylamino-benzyl)-acrylamide] |
| 960 | CCN(CC)c1nc(C(F)(F)F)ccc1/C=C/C(=O)NCc1ccc(NS(C)(=O)=O)c(F)c1 [Example 47, 3-(2-Diethylamino-6-trifluoromethyl-pyridin-3-yl)-N-(3-fluoro-4-methanesulfonylamino-benzyl)-acrylamide] |
| 150 | CC(C)Oc1nc(C(F)(F)F)ccc1/C=C/C(=O)NCc1cc(F)c(NS(C)(=O)=O)c(C#N)c1 [Example 109, N-(3-Cyano-5-fluoro-4-methanesulfonylamino-benzyl)-3-(2-isopropoxy-6-trifluoromethyl-pyridin-3-yl)-acrylamide] |
| 600 | C#Cc1cc(CNC(=O)/C=C/c2ccc(C(F)(F)F)nc2Oc2ccc(F)cc2)cc(F)c1NS(C)(=O)=O [Example 82, N-(3-Ethynyl-5-fluoro-4-methanesulfonylamino-benzyl)-3-[2-(4-fluoro-phenoxy)-6-trifluoromethyl-pyridin-3-yl]-acrylamide] |
| 1600 | CC(C)(C)c1ccc(/C=C/C(=O)NCc2cc(F)c(NS(C)(=O)=O)c(F)c2)cn1 [Example 39, 3-(6-tert-Butyl-pyridin-3-yl)-N-(3,5-difluoro-4-methanesulfonylamino-benzyl)-acrylamide] |

— US7858621B2 (Amorepacific Corporation, priority 2006, dated 2010)
